Laboratory results taken from US20020042079A1, “METHODS AND AGENTS FOR MEASURING AND CONTROLLING MULTIDRUG RESISTANCE” (priority 1994, published 2002).

System: MDA-A1 cells
Experiment: Acridine orange labeling of acidic compartments
Assay type: cell-based, human
Settings: 10 μM Tamoxifen, estrogen receptor negative cells
Procedure: Labeling of Cells with Acridine Orange: To examine intracellular acidic compartments, acridine orange (6 μM in medium from a 10 mM stock in water) was added directly to cells in the Lab-Tek chambers and the cells were incubated for 15 minutes. Cells in the presence of acridine orange were then examined utilizing an excitation at 488 nm and dual emission confocal images were simultaneously recorded using both a 530-30 band pass barrier filter (green fluorescence) and a 605 nm long pass barrier filter (red fluorescence). Optical sections of the fluorescent samples were recorded at 0.5 micron intervals with a 60×oil immersion objective.
There is red fluorescence in punctate cytoplasmic organelles and in a perinuclear region.

CC/C(=C(\c1ccccc1)c1ccc(OCCN(C)C)cc1)c1ccccc1 [Tamoxifen]
red acridine orange fluorescence after Tamoxifen: substantial reduction in the red acridine orange fluorescence
red acridine orange fluorescence after Tamoxifen (listed as tamoxifen): substantial decrease in the red acridine orange fluorescence
